Earlier results in patent US20240307311A1, “STARCH BASED PRINTABLE MATERIALS” (ROQUETTE FRERES, priority 2021, published 2024).

solubility in water (descriptive class)	SMILES
freely soluble in water	Cn1c(=O)c2c(ncn2CC(O)CO)n(C)c1=O (centres unmarked) [diprophylline]
practically insoluble in water	CCC(C)n1ncn(-c2ccc(N3CCN(c4ccc(OCC5COC(Cn6cncn6)(c6ccc(Cl)cc6Cl)O5)cc4)CC3)cc2)c1=O (centres unmarked) [itraconazole]
